Ends that are not written are not given here.
B1: rLBP: recombinant lipopolysaccharide binding protein (LBP holoprotein) (protein, UniProt P18428 26-481, looked up)
Lipopolysaccharide-binding …: ANPGLVARITDKGLQYAAQEGLLALQSELLRITLPDFTGDLRIPHVGRGRYEFHSLNIHSCELLHSALRPVPGQGLSLSISDSSIRVQGRWKVRKSFFKLQGSFDVSVKGISISVNLLLGSESSGRPTVTASSCSSDIADVEVDMSGDLGWLLNLFHNQIESKFQKVLESRICEMIQKSVSSDLQPYLQTLPVTTEIDSFADIDYSLVEAPRATAQMLEVMFKGEIFHRNHRSPVTLLAAVMSLPEEHNKMVYFAISDYVFNTASLVYHEEGYLNFSITDDMIPPDSNIRLTTKSFRPFVPRLARLYPNMNLELQGSVPSAPLLNFSPGNLSVDPYMEIDAFVLLPSSSKEPVFRLSVATNVSATLTFNTSKITGFLKPGKVKVELKESKVGLFNAELLEALLNYYILNTFYPKFNDKLAEGFPLPLLKRVQLYDLGLQIHKDFLFLGANVQYMRV

Legend:
[1] = In vitro heparin-mediated lengthening of APTT / clotting time of heparinized plasma; type: biochemical, human; details: FIG. 12g
Experimental: In vitro, the effect of BPI combination functional domain peptides was determined on heparin-mediated lengthening of activated partial […] (APTT). The APTT is lengthened by the presence of endogenous or exogenous inhibitors of thrombin formation, such as therapeutically administered heparin. Thus, agents which neutralize the anti-coagulant effects of heparin will reduce the APTT measured by the test. Citrated human plasma (200 μL) was incubated for 1 minute at 37° C. with either 15 μL of diluent (0.15 M NaCl, 0.1 M Tris-HCl, pH 7.4) or 15 μL of the diluent also containing 25 μg/mL heparin (187 units/mg). Various concentrations (from 0.0 to 56 μg/mL) of rBPI23, rBPI21Δcys, or BPI combination peptides BPI.29 (the DIII homodimer) and BPI.30 (heterodimer DII+DIII) in a volume of 15 μL were added, followed immediately by 100 μL of thrombin reagent (Catalog No. 845-4, Sigma Chemical Co., St. Louis. MO). Clotting time ([…]) was measured using a BBL Fibrometer (Becton Dickenson Microbiology Systems, Cockeysville, Md.). […] FIG. 12e illustrates the results obtained with BPI.30 on a non-log scale.

[2] = system: rough mutant E. coli J5 bacteria; assay: Radial diffusion bactericidal assay, E. coli J5; type: cell-based; details: for pmol added to well to achieve a 30 mm^2 bactericidal zone, E. coli J5: PROBIT analysis, E. coli J5 (rough); for fold reduction in bactericidal activity in the radial diffusion assay: alanine variant vs unsubstituted peptide
In short: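 Log-phase bacteria, washed in 10 mM sodium phosphate pH 7.4, were seeded at 4×10^6 CFU/mL in underlayer agarose. BPI fragments (5 or 10 μL) went into 3 mm wells for 3 h at 37° C., then overlayer agarose was added. After overnight 37° C. incubation, clearing zones were measured by micrometer.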

Staphylococcus aureus = assay: Radial diffusion bactericidal assay, Staphylococcus aureus; type: cell-based; details: radial diffusion; PROBIT analysis; S. aureus
[3] = system: E. coli 0111:B4 (smooth) bacteria; assay: Radial diffusion bactericidal assay, E. coli 0111:B4; type: cell-based; details: radial diffusion; PROBIT analysis; E. coli O111:B4 (smooth)
[4] = system: zymosan-stimulated NO production by RAW 264.7 cells; assay: Zymosan-stimulated NO production by RAW 264.7 cells; type: cell-based, mouse
Experimental: An additional LPS neutralization screening assay for BPI functional domain peptides was developed using an assay for NO production in mouse cells treated with LPS (see Lorsbach et al., 1993, J. Biol. Chem. 268: 1908-1913). In this assay, mouse RAW 264.7 cells (ATCC Accession No. TIB71) were treated with bacterial LPS. The cells were incubated in 96-well plates and stimulated for 2 hours with E. coli 0113 LPS or zymosan, in the presence or absence of _-interferon, rLBP, fetal bovine serum (FBS) or normal human serum (NHS), or rBPI21Δcys. After this incubation, the cells were washed with fresh media and incubated overnight in media containing 10% FCS. The NO released from the cells accumulated in the media and spontaneously converted to nitrite. This nitrite was assayed in situ by the Griess reaction, as follows. The nitrite was reacted with the primary amine of an added sulfanilamide and formed a diazonium salt. This salt was then reacted with added naphthylethylenediamine to form a red azo-dyc. The Griess reaction was performed at room temperature in about 10 minutes. The amount of produced NO was estimated from a standard curve of Griess reaction products determined spectrophotometrically as Absorbance at a wavelength of 550 nm.

[5] = 3H-heparin binding assay (affinity and capacity); details: for Heparin Capacity: heparin bound at saturation; for Kd: read-out: Heparin Affinity
In short: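 Peptide fragments were bound to PVDF-membrane wells and incubated with 3H-heparin in blocking buffer for 1 h at 4 °C. After washing, bound radioactivity was quantified by liquid scintillation counting, with BSA background subtracted; rBPI23 served as positive control.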

E. coli 0113 LPS = assay: Limulus Amoebocyte Lysate (LAL) inhibition assay; type: biochemical; details: for LAL (relative difference): alanine variant relative to BPI.13
Experimental: BPI proteolytic fragments produced according to Example 1 were subjected to a Limulus Amoebocyte Lysate (LAL) inhibition assay to determine LPS binding properties of these fragments. Specifically, each of the fragments were mixed in Eppendorf tubes with a fixed concentration of E. coli 0113 LPS (4 ng/mL final concentration) and incubated at 37° C. for 3 hours with occasional shaking. Addition controls comprising rBPI23 at 0.05 μg/mL were also tested. Following incubation, 360 μL of Dulbecco's phosphate buffered saline (D-PBS; Grand Island Biological Co. (GIBCO), Long Island, N.Y.) were added per tube to obtain an LPS concentration of 200 pg/mL for the LAL assay. Each sample was then transferred into Immulon II strips (Dynatech, Chantilly, Va.) in volumes of 50 μl per well.
Limulus amoebocyte Lysate (Quantitative Chromogenic LAL kit, Whitaker Bioproducts, Inc., Walkersville, Md.) was added at 50 μL per well and the wells were incubated at room temperature for 25 minutes. Chromogenic substrate was then added at a volume of 100 μL per well and was well mixed. After incubation for 20 to 30 minutes at room temperature, the reaction was stopped with addition of 100 μL of 25% (v/v) acetic acid. Optical density at 405 nm was then measured in a multiplate reader (Model Vmax, […], Menlo Park, Calif.) with the results shown in FIG. 2 in terms of percent inhibition of LPS. In this Figure, the filled circle represents rBPI23; the open circle represents Asp-N fragment A3; the x represents Asp-N fragment A2, the filled square represents Asp-N fragment A4; the filled triangle represents Asp-N fragment A1A2; the open square represents Asp-N fragment A6a; the small open triangle represents CNBr fragment C3; and the small filled square represents CNBr fragment C1/C5.

C. albicans = assay: Radial diffusion fungicidal assay, Candida albicans; type: cell-based; details: radial diffusion
Candida albicans = type: cell-based; details: for MIC (x Fold change in fungicidal activity): alanine variant relative to BPI.13

Molecule | effect on the clotting time of heparinized blood (in words) [1] | bactericidal activity (in words) ([2]; radial diffusion, E. coli J5) | pmol added to well to achieve a 30 mm^2 bactericidal zone, E. coli J5 ([2]; radial diffusion) | pmol added to well to achieve a 30 mm^2 bactericidal zone, S. aureus (Staphylococcus aureus) | pmol added to well to achieve a 30 mm^2 bactericidal zone, E. coli O111:B4 [3] | inhibition of zymosan-stimulated NO production (in words) [4] | heparin binding capacity (in words) [5] | Heparin Capacity [5] [ng] | Kd [5] [nM] | LAL / LPS inhibition activity (in words) (E. coli 0113 LPS) | C. albicans: pmol required for 30 mm^2 zone (C. albicans) [pmol] | MIC C. alb (Candida albicans) [µg/mL] | MIC (x Fold change in fungicidal activity) (Candida albicans) | fold reduction in bactericidal activity in the radial diffusion assay [2] | LAL (relative difference) (E. coli 0113 LPS) | HEPCAP (x Fold change in activity) ([5]; heparin binding capacity, relative to BPI.13) | decline of Kd of heparin binding ([5]; vs unsubstituted peptide) [fold]
LQKELKRIKIPDYSDSFKIKHL [BPI.4] | less of a decrease in clotting times | little or no bactericidal activity | b (no detectable activity up to 5 μg/well) | b (no detectable activity up to 5 μg/well) | b (no detectable activity up to 5 μg/well) | not inhibited | low heparin binding capacity | 80.8 | 336 | – | – | – | – | – | – | – | –
KSKAGWLIQLFHKK [BPI.34] | – | – | 916.20 pmol | – | b (no detectable activity up to 5 μg/well) | – | – | 205.1 | 518 | moderate decrease in LPS-binding activity | 319.13 | 6.25 | = | – | – | – | –
KSAVGWLIQLFHKK [BPI.33] | – | – | 575.40 pmol | – | b (no detectable activity up to 5 μg/well) | – | – | 230.7 | 492 | moderate decrease in LPS-binding activity | 603.44 | 6.25 | = | – | – | – | –
KSKVGWLIQAFHKK [BPI.40] | – | – | 1,760.10 pmol | – | b (no detectable activity up to 5 μg/well) | – | – | 160.5 | 547 | large decrease in LPS-binding activity | 253.17 | 3.13 | – | approximately 5 fold | = (no difference in the LAL assay) | – | –
ASKVGWLIQLFHKK [BPI.31] | – | – | 937.60 pmol | – | b (no detectable activity up to 5 μg/well) | – | – | 205.1 | 252 | moderate decrease in LPS-binding activity | 426.21 | 6.25 | = | – | – | – | –
KSKVGWLIQLFHAK [BPI.43] | – | – | 729.40 pmol | – | 4,872.30 pmol | – | – | 283.9 | 492 | – | 784.78 | 12.50 | – | – | = (no difference in the LAL assay) | – | –
KSKVGALIQLFHKK [BPI.36] | – | – | 1,652.00 pmol | – | b (no detectable activity up to 5 μg/well) | – | – | 80.2 | 379 | large decrease in LPS-binding activity | 196.96 | 6.25 | = | approximately 5 fold | – | – | –
KSKVGWLAQLFHKK [BPI.38] | – | – | 1,698.20 pmol | – | b (no detectable activity up to 5 μg/well) | – | – | 194.3 | 579 | – | 390.65 | 6.25 | = | – | = (no difference in the LAL assay) | – | –
KSKVGWLIQLAHKK [BPI.41] | – | – | 2,465.40 pmol | – | b (no detectable activity up to 5 μg/well) | – | – | 119.1 | 469 | – | 733.70 | 3.13 | – | – | = (no difference in the LAL assay) | – | –
KAKVGWLIQLFHKK [BPI.32] | – | – | 613.80 pmol | – | b (no detectable activity up to 5 μg/well) | – | – | 217.1 | 340 | moderate decrease in LPS-binding activity | 293.62 | 3.13 | – | – | – | – | –
KSKVGWLIQLFAKK [BPI.42] | – | – | 264.80 pmol | – | 3,731.70 pmol | – | – | 369.1 | 820 | – | 548.49 | 6.25 | = | – | = (no difference in the LAL assay) | =1.0 x Fold | 1.2
B1 | – | – | – | – | – | no significant inhibition | – | – | – | – | – | – | – | – | – | – | –

Source: US20040023884A1, “Biologically active peptides from functional domains of bactericidal/permeability-increasing protein and uses thereof” (priority 1993, published 2004)
